According to the OligoGym collection:
“And” between values parts separate entries of the source, which are not always exact repeats. Equal entries are not always repeated. After the bases stand the sugars from the 5' end (letter, count) and the backbone: PS all phosphorothioate, else s phosphorothioate and o phosphodiester by linkage. Methylation of C is not given here. e = 2'-O-(2-methoxyethyl) (MOE); d = 2'-deoxy (DNA)

Target: DGAT2
Settings: ASO

| Sequence | target mRNA inhibition (HepG2, 2.5 µM) | target mRNA inhibition (HepG2, 10 µM) | target mRNA inhibition (HepG2, 0.12 µM) [%] | target mRNA inhibition (HepG2, 20 µM) |
| --- | --- | --- | --- | --- |
| ACCAACTCTCAGCTACTCCC (sugars e5 d10 e5, PS) | 95% | 85% | – | – |
| CATTGCCACTCCCATTCTTT (sugars e5 d10 e5, PS) | – | – | 44 | – |
| CTTAGGCATGCTTCCTCCCA (sugars e5 d10 e5, PS) | 57% | 84% | – | – |
| GGCATGCTTCCTCCCAC (sugars e3 d10 e4, PS) | 56% | 56% | – | – |
| CAGGCATGGAGCTCAGAGAC (sugars e3 d14 e3, PS) | – | – | 76 | – |
| GATAGCATTGCCACTCCCAT (sugars e3 d14 e3, PS) | – | – | 75 | – |
| AGGATGCAGGGTTACCCAGC (sugars e5 d10 e5, PS) | 81% | 71% | – | – |
| CTTCTTAAAAAAGACCTAAC (sugars e5 d10 e5, PS) | – | – | 26 | – |
| AGAGGCCCTGGACACTGGCC (sugars e5 d10 e5, PS) | – | – | 32 | – |
| CTAAGCTTATTAGGTGTCTT (sugars e5 d10 e5, PS) | 68% | 81% | – | – |
| ACAGGACCCACTGGAGCACT (sugars e3 d14 e3, PS) | – | – | 61 | – |
| TGTTATCCGAGTTGAATTCT (sugars e5 d10 e5, PS) | – | – | 45 | – |
| ACCAGGGCCTCCATGTACAT (sugars e3 d14 e3, PS) | 27% and 24% | 63% and 50% | 84 | 26% |
| GGATACTCAGAAGAGCAGTG (sugars e5 d10 e5, PS) | 60% | 80% | – | – |
| AGGAGTTCTCGAATATCCCT (sugars e5 d10 e5, PS) | 55% and 50% | 87% | – | – |
| GGGTTCTTGTCCTGGTCCCA (sugars e5 d10 e5, PS) | 79% and 66% | 90% | – | – |
| ATATAGTTCCTGGTGGTCAG (sugars e5 d10 e5, PS) | – | – | 53 | – |
| GGAGCTCAGAGACTCAGCCG (sugars e2 d13 e5, PS) | – | – | 65 | – |

| Sequence | target mRNA inhibition (HepG2, 2.5 µM) | target mRNA inhibition (HepG2, 10 µM) | target mRNA inhibition (HepG2, 0.12 µM) [%] | target mRNA inhibition (HepG2, 20 µM) |
| --- | --- | --- | --- | --- |
| TCACATGCCTGAGGGCAGCA (sugars e5 d10 e5, PS) | 66% | 86% | – | – |
| GGATAGTCGATTTACCAGAA (sugars e5 d10 e5, PS) | 69% | 85% | – | – |
| GTGCAGAATATGTACATGAG (sugars e5 d10 e5, PS) | – | – | 43 | – |
| TTTCCTTCTTAAAAAAGACC (sugars e5 d10 e5, PS) | – | – | 9 | – |
| GTAGACTCTCCATGAGCCTA (sugars e5 d10 e5, PS) | 49% | 88% | – | – |
| AGCTCAGAGACTCAGCCGCA (sugars e3 d14 e3, PS) | – | – | 77 | – |
| GGTCTGGGAACAGCAGCATC (sugars e5 d10 e5, PS) | 59% | 79% | – | – |
| GAGCTTCACCAGGGCCTCCA (sugars e5 d10 e5, PS) | – | 74% and 79% | 52 | 83% and 88% |
| AGGGCCAGTTTCACAAAGCC (sugars e5 d10 e5, PS) | – | – | 33 | – |
| CCCATCATGACCAGGCCCTG (sugars e5 d10 e5, PS) | 31% | 77% | – | – |
| TCTCATGCTAGGTCCTGTGC (sugars e5 d10 e5, PS) | 89% and 74% | 90% and 88% | – | – |
| ACTGGTCCTGCAGTTTCAGG (sugars e5 d10 e5, PS) | – | – | 55 | – |
| CCAACTCCTCCCCTTGGCAG (sugars e5 d10 e5, PS) | – | – | 28 | – |
| TGGGAACTTCTTGCTCACTT (sugars e5 d10 e5, PS) | – | – | 43 | – |
| GCGCGATTCACTGAGGACCT (sugars e5 d10 e5, PS) | 75% | 76% | – | – |
| GATGCTGGATCCAGTGCCTA (sugars e5 d10 e5, PS) | – | – | 53 | – |
| AAGGCACCCAGGCCCATGAT (sugars e5 d10 e5, PS) | – | – | 46 | – |
| CATGGAGCTCAGAGACTCAG (sugars e2 d13 e5, PS) | – | – | 71 | – |
